Assay results taken from patent publication US20240270762A1, “PENICILLIN-BINDING PROTEIN INHIBITORS” (priority 2021, published 2024).
≈ marks a conversion by molar mass, not a printed value.

Experiments:
[1] = biological target: T1, PBP3 from Escherichia coli (K-12) (Escherichia coli, UniProt P0AD68); assay: Bocillin-FL fluorescence polarization competition binding, E. coli PBP3
T1 construct: made in house
Method in brief: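 Purified PBPs pre-incubated with inhibitor (E. coli PBP3 1.5 μM, 30 min; P. aeruginosa PBP3 0.75 μM, A. baumannii PBP1a 1 μM and PBP3 0.2 μM, 15 min), then Bocillin-FL 0.1 μM (0.05 μM for PBP1a) added; FP read up to 60 min. EC50 = concentration halving bound Bocillin-FL.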

A. baumannii PBP2 = A. baumannii PBP2 (Acinetobacter baumannii, UniProt D0C8Z9); assay: Bocillin-FL competition binding via gel filtration, A. baumannii PBP2
Method in brief: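 Enzyme was pre-incubated with rising inhibitor concentrations, then Bocillin-FL was added and incubated 15 minutes more. Bound probe was separated by gel filtration and fluorescence read. EC50 came from fitting fraction of PBP labelled versus inhibitor concentration to a Hill equation with ymin, ymax and n.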

A. baumannii ATCC 17978 = assay: microbe, parasite or virus in culture; format: cell-based; conditions: Acinetobacter baumannii, ATCC17978, read-out: MIC, A. baumannii ATCC 17978
A. baumannii ATCC 19606 = assay: microbe, parasite or virus in culture; format: cell-based; conditions: Acinetobacter baumannii, ATCC19606, read-out: MIC, A. baumannii ATCC 19606
P. aeruginosa ATCC 35151 = assay: microbe, parasite or virus in culture; format: cell-based; conditions: Pseudomonas aeruginosa, ATCC35151, read-out: Minimum inhibitory concentration, P. aeruginosa ATCC 35151
[2] = system: P. aeruginosa (ΔmexAB-oprM); assay: Broth microdilution MIC in iron-depleted CAMHB (IDM); format: cell-based; conditions: Pseudomonas aeruginosa; iron-depleted CAMHB (IDM); […]; read-out: Minimum inhibitory concentration, P. aeruginosa ΔmexAB-oprM
P. aeruginosa CDC-0090 = assay: microbe, parasite or virus in culture; format: cell-based; conditions: Pseudomonas aeruginosa, CDC0090, read-out: Minimum inhibitory concentration, P. aeruginosa CDC-0090
P. aeruginosa CDC-0095 = assay: microbe, parasite or virus in culture; format: cell-based; conditions: Pseudomonas aeruginosa, CDC0095, read-out: Minimum inhibitory concentration, P. aeruginosa CDC-0095
A. baumannii CDC-0033 = assay: microbe, parasite or virus in culture; format: cell-based; conditions: Acinetobacter baumannii, CDC0033, read-out: MIC, A. baumannii CDC-0033
A. baumannii CDC-0036 = assay: microbe, parasite or virus in culture; format: cell-based; conditions: Acinetobacter baumannii, CDC0036, read-out: MIC, A. baumannii CDC-0036
A. baumannii CDC-0045 = assay: microbe, parasite or virus in culture; format: cell-based; conditions: Acinetobacter baumannii, CDC0045, read-out: MIC, A. baumannii CDC-0045
[3] = system: B. humptydooensis ATCC BAA-2767; assay: microbe, parasite or virus in culture; format: cell-based; conditions: Burkholderia humptydooensis, ATCCBAA2767, read-out: Minimum inhibitory concentration (MIC), B. humptydooensis ATCC BAA-2767

T1 sequence (P0AD68 1-577): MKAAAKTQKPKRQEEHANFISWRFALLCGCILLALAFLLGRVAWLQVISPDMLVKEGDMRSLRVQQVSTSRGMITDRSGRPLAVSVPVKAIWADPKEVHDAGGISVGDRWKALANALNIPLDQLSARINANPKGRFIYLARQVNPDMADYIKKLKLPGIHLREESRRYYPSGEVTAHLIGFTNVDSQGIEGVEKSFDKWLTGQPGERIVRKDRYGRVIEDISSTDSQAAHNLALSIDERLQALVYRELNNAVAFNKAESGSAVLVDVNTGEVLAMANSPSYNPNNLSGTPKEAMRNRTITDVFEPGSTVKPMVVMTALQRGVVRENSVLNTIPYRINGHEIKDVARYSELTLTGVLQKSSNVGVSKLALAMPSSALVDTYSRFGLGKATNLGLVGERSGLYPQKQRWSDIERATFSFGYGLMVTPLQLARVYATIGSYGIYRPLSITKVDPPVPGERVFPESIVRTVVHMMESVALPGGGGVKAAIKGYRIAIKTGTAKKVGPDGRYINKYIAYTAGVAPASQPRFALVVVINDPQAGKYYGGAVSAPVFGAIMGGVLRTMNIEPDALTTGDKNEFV
A. baumannii PBP2, sequence (D0C8Z9 whole entry): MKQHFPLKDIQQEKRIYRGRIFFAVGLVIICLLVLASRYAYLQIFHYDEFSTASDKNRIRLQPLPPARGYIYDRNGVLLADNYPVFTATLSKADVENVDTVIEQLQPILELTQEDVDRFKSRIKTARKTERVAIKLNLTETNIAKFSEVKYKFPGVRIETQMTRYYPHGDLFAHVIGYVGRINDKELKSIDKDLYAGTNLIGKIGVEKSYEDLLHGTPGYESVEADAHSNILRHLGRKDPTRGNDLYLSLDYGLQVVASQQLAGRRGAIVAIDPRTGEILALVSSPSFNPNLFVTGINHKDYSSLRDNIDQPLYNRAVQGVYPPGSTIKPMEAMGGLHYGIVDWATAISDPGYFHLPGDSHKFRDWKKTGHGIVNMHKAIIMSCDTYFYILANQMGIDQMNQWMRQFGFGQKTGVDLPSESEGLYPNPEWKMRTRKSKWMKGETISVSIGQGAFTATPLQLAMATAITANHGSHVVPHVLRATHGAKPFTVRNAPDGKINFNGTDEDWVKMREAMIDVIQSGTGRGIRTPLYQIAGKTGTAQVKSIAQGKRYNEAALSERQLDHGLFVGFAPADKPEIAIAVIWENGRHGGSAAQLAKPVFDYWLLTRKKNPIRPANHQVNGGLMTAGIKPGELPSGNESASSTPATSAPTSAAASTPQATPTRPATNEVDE

| Structure (SMILES) | EC50 [1] | EC50 (A. baumannii PBP2) | MIC (A. baumannii ATCC 17978) | MIC (A. baumannii ATCC 19606) | MIC (P. aeruginosa ATCC 35151) | MIC [2] | MIC (P. aeruginosa CDC-0090) | MIC (P. aeruginosa CDC-0095) | MIC (A. baumannii CDC-0033) | MIC (A. baumannii CDC-0036) | MIC (A. baumannii CDC-0045) | MIC [3] |
| --- | --- | --- | --- | --- | --- | --- | --- | --- | --- | --- | --- | --- |
| O=C(NCCCN1CCN(C(=O)NC(C(=O)N[C@H]2Cc3ccc(F)c(C(=O)O)c3OB2O)c2cc(F)c(O)c(O)c2Cl)C(=O)C1=O)c1cc(F)ncc1F (mixture of isomers) [Example 405] | < 10 µM | 10 to 50 µM | < 1 µg/mL | < 1 µg/mL | < 1 µg/mL | < 1 µg/mL | 2 to 4 µg/mL | 2 to 4 µg/mL | 2 to 4 µg/mL | 2 to 4 µg/mL | < 1 µg/mL | 2 to 4 µg/mL |
| O=C(NCCCN1CCN(C(=O)N[C@@H](C(=O)N[C@H]2Cc3ccc(F)c(C(=O)O)c3OB2O)c2cc(F)c(O)c(O)c2Cl)C(=O)C1=O)c1cc(F)nc(F)c1 (racemic) [Example 401] | < 10 µM | 10 to 50 µM | < 1 µg/mL | < 1 µg/mL | < 1 µg/mL | < 1 µg/mL | < 1 µg/mL | < 1 µg/mL | 2 to 4 µg/mL (≈ 2.56 to 5.12 µM) | 2 to 4 µg/mL (≈ 2.56 to 5.12 µM) | < 1 µg/mL | > 128 µg/mL |
| O=C(NCCCN1CCN(C(=O)N[C@@H](C(=O)N[C@H]2Cc3ccc(F)c(C(=O)O)c3OB2O)c2cc(F)c(O)c(O)c2Cl)C(=O)C1=O)c1ccc(O)cc1F (racemic) [Example 417] | < 10 µM | < 10 µM | < 1 µg/mL | < 1 µg/mL | < 1 µg/mL | < 1 µg/mL | 8 to 16 µg/mL (≈ 10.3 to 20.6 µM) | 8 to 16 µg/mL (≈ 10.3 to 20.6 µM) | 2 to 4 µg/mL (≈ 2.57 to 5.14 µM) | 2 to 4 µg/mL (≈ 2.57 to 5.14 µM) | < 1 µg/mL | > 128 µg/mL |
| O=C(NCCCN1CCN(C(=O)N[C@@H](C(=O)N[C@H]2Cc3ccc(F)c(C(=O)O)c3OB2O)c2cc(F)c(O)c(O)c2Cl)C(=O)C1=O)c1c(F)cc(O)cc1F (racemic) [Example 420] | < 10 µM | 10 to 50 µM | < 1 µg/mL | < 1 µg/mL | < 1 µg/mL | < 1 µg/mL | < 1 µg/mL | 2 to 4 µg/mL (≈ 2.51 to 5.03 µM) | 2 to 4 µg/mL (≈ 2.51 to 5.03 µM) | 2 to 4 µg/mL (≈ 2.51 to 5.03 µM) | < 1 µg/mL | 3 µg/mL (≈ 3.77 µM) |
| O=C(NCCCN1CCN(C(=O)N[C@@H](C(=O)N[C@H]2Cc3ccc(F)c(C(=O)O)c3OB2O)c2cc(F)c(O)c(O)c2Cl)C(=O)C1=O)c1ccc(O)cc1Cl (single isomer, unassigned) [Example 471] | < 10 µM | < 10 µM | < 1 µg/mL | < 1 µg/mL | < 1 µg/mL | < 1 µg/mL | < 1 µg/mL | < 1 µg/mL | 2 to 4 µg/mL (≈ 2.52 to 5.04 µM) | 2 to 4 µg/mL (≈ 2.52 to 5.04 µM) | < 1 µg/mL | < 1 µg/mL |
| O=C(NCCCN1CCN(C(=O)N[C@@H](C(=O)N[C@H]2Cc3ccc(F)c(C(=O)O)c3OB2O)c2cc(F)c(O)c(O)c2Cl)C(=O)C1=O)c1cc(F)c(O)cc1F (single isomer, unassigned) [Example 473] | < 10 µM | < 10 µM | < 1 µg/mL | < 1 µg/mL | < 1 µg/mL | < 1 µg/mL | 2 to 4 µg/mL (≈ 2.51 to 5.03 µM) | < 1 µg/mL | 2 to 4 µg/mL (≈ 2.51 to 5.03 µM) | 2 to 4 µg/mL (≈ 2.51 to 5.03 µM) | < 1 µg/mL | < 1 µg/mL |
| O=C(NCCCN1CCN(C(=O)NC(C(=O)N[C@H]2Cc3ccc(F)c(C(=O)O)c3OB2O)c2cc(F)c(O)c(O)c2Cl)C(=O)C1=O)c1ccc(F)c(O)c1Cl (stereo partly drawn) [Example 412, (3R)-3-(2-(4-(3-(2-chloro-4-fluoro-3-hydroxybenzamido)propyl)-2,3-dioxopiperazine-1-carboxamido)-2-(2-chloro-5-fluoro-3,4-dihydroxyphenyl)acetamido)-7-fluoro-2-hydroxy-3,4-dihydro-2H-benzo[e][1,2]oxaborinine-8-carboxylic acid] | < 10 µM | < 10 µM | < 1 µg/mL | < 1 µg/mL | < 1 µg/mL | – | 2 to 4 µg/mL (≈ 2.46 to 4.92 µM) | 2 to 4 µg/mL (≈ 2.46 to 4.92 µM) | 8 to 16 µg/mL (≈ 9.85 to 19.7 µM) | 8 to 16 µg/mL (≈ 9.85 to 19.7 µM) | 2 to 4 µg/mL (≈ 2.46 to 4.92 µM) | 2 to 4 µg/mL (≈ 2.46 to 4.92 µM) |
| O=C(O)c1c(F)ccc2c1OB(O)[C@@H](NC(=O)C(NC(=O)N1CCN(C3CCN(C(=O)Cc4cccc(O)c4)CC3)C(=O)C1=O)c1cc(F)c(O)c(O)c1Cl)C2 (stereo partly drawn) [Example 474, (3R)-3-(2-(2-chloro-5-fluoro-3,4-dihydroxyphenyl)-2-(4-(1-(2-(3-hydroxyphenyl)acetyl)piperidin-4-yl)-2,3-dioxopiperazine-1-carboxamido)acetamido)-7-fluoro-2-hydroxy-3,4-dihydro-2H-benzo[e][1,2]oxaborinine-8-carboxylic acid] | – | < 10 µM | < 1 µg/mL | < 1 µg/mL | < 1 µg/mL | < 1 µg/mL | < 1 µg/mL | 2 to 4 µg/mL (≈ 2.5 to 5 µM) | < 1 µg/mL | < 1 µg/mL | < 1 µg/mL | < 1 µg/mL |
| O=C(O)c1c(F)ccc2c1OB(O)[C@@H](NC(=O)C(NC(=O)N1CCN(CC3CCN(C(=O)c4cccc(O)c4)CC3)C(=O)C1=O)c1cc(F)c(O)c(O)c1Cl)C2 (stereo partly drawn) [Example 475, (3R)-3-(2-(2-chloro-5-fluoro-3,4-dihydroxyphenyl)-2-(4-((1-(3-hydroxybenzoyl)piperidin-4-yl)methyl)-2,3-dioxopiperazine-1-carboxamido)acetamido)-7-fluoro-2-hydroxy-3,4-dihydro-2H-benzo[e][1,2]oxaborinine-8-carboxylic acid] | – | < 10 µM | < 1 µg/mL | < 1 µg/mL | < 1 µg/mL | < 1 µg/mL | < 1 µg/mL | < 1 µg/mL | 2 to 4 µg/mL (≈ 2.5 to 5 µM) | 2 to 4 µg/mL (≈ 2.5 to 5 µM) | < 1 µg/mL | 2 to 4 µg/mL (≈ 2.5 to 5 µM) |
| O=C(O)c1c(F)ccc2c1OB(O)[C@@H](NC(=O)C(NC(=O)N1CCN(C3CCN(C(=O)c4ccc(O)cc4O)CC3)C(=O)C1=O)c1cc(F)c(O)c(O)c1Cl)C2 (stereo partly drawn) [Example 476, (3R)-3-(2-(2-chloro-5-fluoro-3,4-dihydroxyphenyl)-2-(4-(1-(2,4-dihydroxybenzoyl)piperidin-4-yl)-2,3-dioxopiperazine-1-carboxamido)acetamido)-7-fluoro-2-hydroxy-3,4-dihydro-2H-benzo[e][1,2]oxaborinine-8-carboxylic acid] | – | < 10 µM | < 1 µg/mL | < 1 µg/mL | < 1 µg/mL | < 1 µg/mL | < 1 µg/mL | < 1 µg/mL | < 1 µg/mL | < 1 µg/mL | < 1 µg/mL | < 1 µg/mL |
| O=C(O)c1c(F)ccc2c1OB(O)[C@@H](NC(=O)C(NC(=O)N1CCN(CC3CCN(C(=O)Nc4cccc(O)c4)CC3)C(=O)C1=O)c1cc(F)c(O)c(O)c1Cl)C2 (stereo partly drawn) [Example 477, (3R)-3-(2-(2-chloro-5-fluoro-3,4-dihydroxyphenyl)-2-(4-((1-((3-hydroxyphenyl)carbamoyl)piperidin-4-yl)methyl)-2,3-dioxopiperazine-1-carboxamido)acetamido)-7-fluoro-2-hydroxy-3,4-dihydro-2H-benzo[e][1,2]oxaborinine-8-carboxylic acid] | – | < 10 µM | < 1 µg/mL | < 1 µg/mL | < 1 µg/mL | < 1 µg/mL | < 1 µg/mL | < 1 µg/mL | 2 to 4 µg/mL (≈ 2.45 to 4.91 µM) | 2 to 4 µg/mL (≈ 2.45 to 4.91 µM) | < 1 µg/mL | < 1 µg/mL |
| O=C(O)c1c(F)ccc2c1OB(O)[C@@H](NC(=O)C(NC(=O)N1CCN(C3CCN(C(=O)Nc4cccc(O)c4F)CC3)C(=O)C1=O)c1cc(F)c(O)c(O)c1Cl)C2 (stereo partly drawn) [Example 478, (3R)-3-(2-(2-chloro-5-fluoro-3,4-dihydroxyphenyl)-2-(4-(1-((2-fluoro-3-hydroxyphenyl)carbamoyl)piperidin-4-yl)-2,3-dioxopiperazine-1-carboxamido)acetamido)-7-fluoro-2-hydroxy-3,4-dihydro-2H-benzo[e][1,2]oxaborinine-8-carboxylic acid] | – | 10 to 50 µM | < 1 µg/mL | < 1 µg/mL | < 1 µg/mL | < 1 µg/mL | 2 to 4 µg/mL (≈ 2.44 to 4.88 µM) | 2 to 4 µg/mL (≈ 2.44 to 4.88 µM) | 8 to 16 µg/mL (≈ 9.77 to 19.5 µM) | 2 to 4 µg/mL (≈ 2.44 to 4.88 µM) | < 1 µg/mL | 8 to 16 µg/mL (≈ 9.77 to 19.5 µM) |
